Laboratory results published in US12214036B2, “Combination therapy comprising AXL/MER and PD-1/PD-L1 inhibitors” (Incyte Corporation, priority 2020, dated 2025).

Columns and labels:
TYRO3 = target: T1, TYRO3 (Homo sapiens, UniProt Q06418); test: TR-FRET kinase assay, TYRO3; format: biochemical
T1 construct: recombinant phosphorylated forms of the kinase domains for AXL, MER and TYRO3; purchased Life Technologies PR7480A
T1 sequence (Q06418 518-790 limits assumed): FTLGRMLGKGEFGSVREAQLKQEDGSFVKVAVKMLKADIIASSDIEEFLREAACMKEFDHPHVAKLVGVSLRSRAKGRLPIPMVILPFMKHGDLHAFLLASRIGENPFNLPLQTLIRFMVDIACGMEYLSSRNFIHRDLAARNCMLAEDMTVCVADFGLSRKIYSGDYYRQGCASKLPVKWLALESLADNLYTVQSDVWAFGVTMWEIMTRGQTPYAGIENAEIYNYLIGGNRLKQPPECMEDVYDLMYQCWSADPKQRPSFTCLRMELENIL
Protocol: The biochemical potency of Compound 1 to inhibit the enzymatic activity of TAM family members was investigated by TR-FRET assays using recombinant phosphorylated forms of the kinase domains for AXL, MER and TYRO3.
Phospho-AXL (pAXL), cMER and Tyro3 kinase activities were measured by time-resolved fluorescence energy transfer (TR-FRET) assays. Autophosphorylation of AXL was carried out before the kinase assay by incubating the recombinant AXL protein (ThermoFisher Scientific; #PV4275) in buffer containing 50 mM Tris, pH 7.5, 0.2 mg/mL AXL, 5 mM ATP, 20 mM MgCl2 and 2 mM dithiothreitol (DTT) at room temperature for 1 hour. The kinase assay buffer contained 50 mM HEPES, pH 7.5, 10 mM MgCl2, 1 mM EGTA, 0.01% NP-40 and 2 mM DTT. Enzyme solutions of 0.69 nM phospho-AXL, or 0.088 nM cMER (Carna Biosciences, Kobe, Japan; #08-108) or 0.137 nM TYRO3 (Life Technologies, PR7480A) were prepared in assay buffer. […] The plate was incubated for 30 minutes at room temperature, and homogenous time resolved fluorescence (HTRF) signal was measured on a PheraStar FS plate reader (BMG Labtech, Ortenberg, Germany). Percent inhibition was calculated for each concentration, and half maximal inhibitory concentration (IC50) value was generated from curve fitting with GraphPad Prism software (San Diego, Calif.).

MBT-2 tumor = test: MBT-2 syngeneic tumor model; format: in vivo; details: MBT-2 in C3H mice, oral BID, FIG. 7A
Protocol: To test potential immunomodulatory activity of Compound 1 in vivo, antitumor efficacy studies were performed in syngeneic tumor models.
MBT-2 cells were obtained from the Japanese Collection of Research Bioresources Cell Bank and were maintained in DMEM supplemented with 10% FBS. MC38 cells were obtained from the NCI. 4T1 cells were obtained from ATCC and maintained in RPMI media supplemented with 10% FBS. For MBT-2 experiments, 5×10^5 MBT-2 cells were inoculated subcutaneously into the right hind flank of 6- to 8-week-old C3H mice or athymic nude mice (Charles River Laboratories, Wilmington, Mass.). For MC38 studies, 12-week old female C57BL/6 mice were inoculated with brei of MC38 tumors (in-vivo passage 6) into the right hind flank. For 4T1 studies, 7.5×10^5 4 T1 cells were inoculated subcutaneously into the right hind flank of 6- to 8-week-old female BALB/c mice or athymic nude mice (Charles River Laboratories). […] Mice were monitored for tumor growth and overt tolerability over the course of the experiment. […] Tumor volume was calculated using the formula (L×W^2)/2, where L and W refer to the length and width dimensions, respectively. Tumor growth inhibition (TGI) was calculated using the formula (1−(VT/VC))×100, where VT is the tumor volume of the treatment group on the last day of treatment, and VC is the tumor volume of the control group on the last day of treatment. […]

With `CC(C)C(=O)N1CCC(c2cc(-c3ccc(NC(=O)c4cn(C(C)C)c(=O)n(-c5ccccn5)c4=O)cc3)c3c(N)ncnn23)CC1` [Compound 1, N-(4-(4-Amino-7-(1-isobutyrylpiperidin-4-yl)pyrrolo[1,2-f][1,2,4]triazin-5-yl)phenyl)-1-isopropyl-2,4-dioxo-3-(pyridin-2-yl)-1,2,3,4-tetrahydropyrimidine-5-carboxamide] the IC50 (TYRO3; average from multiple lots, n=25, read-out: IC50 against TYRO3) was 101 ± 27 nM, the “selectivity over TYRO3” value (TYRO3; biochemical) was “approximately 30 fold” and the “antitumor efficacy (tumor volume)” value (MBT-2 tumor) was “dose-dependent efficacy”.
